Values quoted from earlier work as cited in patent publication US20050267197A1 (priority 2004, published 2005).
Blank lines part the entries; values can stand above or below the molecule they belong to.

What was measured:
[1] = in vivo
[2] = in vivo; remark: listed apart in the source

patients affected by flushing (redness) of the face and neck [1]: more than three quarters of patients
SMILES: O=C(O)c1cccnc1 [Niacin]
patients discontinuing treatment because of adverse effects [1]: more than 40% | increase of blood levels of HDL cholesterol [2]: up to 35% | reduction of total cholesterol [2]: up to 15% | reduction of triglyceride levels [2]: up to 30%

SMILES: COCc1c(C(C)C)nc(C(C)C)c(/C=C/[C@@H](O)C[C@@H](O)CC(=O)O)c1-c1ccc(F)cc1 [Baycol®, cervastatin]
deaths linked to the drug (at recommended initial dose (0.4 mg/day) as well as highest dose (0.8 mg/day)): 31 deaths

SMILES: CC(C)c1nc(N(C)S(C)(=O)=O)nc(-c2ccc(F)cc2)c1/C=C/[C@@H](O)C[C@@H](O)CC(=O)O [Crestor®, rosuvastatin]
cases of serious side effects cited (cited by consumer advocacy group, March 2004): 16 cases
